Source: patent US20220218667A1, “DUAL INHIBITORS OF SOLUBLE EPOXIDE HYDROLASE AND METHODS OF USE THEREOF” (OROX Biosciences, Inc., priority 2019, published 2022)
Like-named read-outs stand apart in the source and are kept apart here. Marks after values point to notes of the source that are not given here.

Assays:
[1] = system: C57B/L6 mice exposed to bleomycin; assay: Example 1: prophylactic treatment of mice exposed to bleomycin (IPF model); format: in vivo, mouse; conditions: OX1, OX3, Nintedanib 30 mg/kg QD, Pirfenidone 100 mg/kg BID; for body weight course over 21 days: bleomycin mice, oral gavage day -1 to 20; for neutrophil migration into BALF / number of lymphocytes in BALF / total cell (leukocyte) count in BALF / increased collagen (fibrosis) score, trichrome / mean Ashcroft score (lung histology) / mean score for mixed peribronchiolar/perivascular inflammation: day 21; for neutrophil migration into BALF / number of lymphocytes in BALF / total cell (leukocyte) count in BALF: oral; for increased collagen (fibrosis) score, trichrome / mean Ashcroft score (lung histology) / mean score for mixed peribronchiolar/perivascular inflammation: compared to vehicle (Group 2)
Excerpt: 4-(5-phenyl-3-{3-[3-(4-trifluoromethyl-phenyl)-ureido]-propyl}-pyrazol-1-yl)-benzenesulfonamide (PTUPB) [termed OX1] was compared to Pirfenidone, Nintedanib, and GSK225629415 [termed OX3] for treatment of IPF using an established model for IPF treating, which is prophylactic treatment of mice exposed to the chemotherapeutic agent bleomycin. […] Pirfenidone and Nintedanib are standard of care for the treatment of idiopathic pulmonary fibrosis and served as reference compounds in the experiment.
C57B/L6 mice were used in the experiments. When used, Bleomycin was administered intra-oropharyngeally, 1.5 U/kg, QD per established protocol. The test articles were dosed via oral gavage in 200 μL/day vehicle. The doses and formulations of test articles were selected based on the literature describing the lowest doses capable of eliciting pharmacological action.
Animals were dosed with the test articles (or vehicle) starting at day −1 to day 20. On day 1, daily doses of Bleomycin commenced in all but group 1 (negative control) which received the vehicle. On day 21, all animals were weighed and sacrificed. After lungs and bronco-alveolar lavage fluid (BALF) were harvested, they were prepared according to standard procedures for further analysis and histology. All animals were assessed twice a week for body weight and overall appearance. Efficacy endpoints measured in this study included lung weight, total leukocytes, and histology as determined by Mason's Trichrome stain and scored using a modified Ashcroft score.
The following parameters were measured in bronchoalveolar fluid (BALF): 1) soluble collagen and 2) differential leukocyte counts for different leukocyte populations.
After weighing and removal of BALF from the lungs, they were inflated and fixed using 10% neutral buffered formalin for histopathology analysis. Fifty-four formalin-fixed lung samples from mice were submitted to HistoTox Labs and were processed routinely. Two slides from each block were sectioned and stained with hematoxylin and eosin (H&E) or Masson's trichrome. Glass slides were evaluated with light microscopy by a board-certified veterinary pathologist. Lung sections were scored according to the modified Ashcroft scale.

[2] = system: Human primary lung fibroblasts from IPF donors; assay: Fibroblast-to-Myofibroblast Transition (FMT) assay; format: cell-based; conditions: for IC50: Homo sapiens, Primary lung fibroblast, 1.25 ng/ml TGF-b1
Protocol: OX1 was evaluated in a primary cell-based Fibroblast-to-Myofibroblast Transition (FMT) assay; an in vitro assay relevant to idiopathic pulmonary fibrosis (TPF). Human primary lung fibroblasts from three (3) IPF donors (IPF06, IPF07, and IPF08) were triggered using 1.25 ng/ml TGF-b1 to induce FMT, one hour after application of compounds. OX1 and Nintedanib (approved drug for TPF) were applied in […] in semi-log dilutions with the top concentration at […] to construct eight (8)-point concentration response curve (CRC) in biological duplicates (ie. on two (2) different cell plates at on (1) occasion). SB525334 was used at […] in 0.1% DMSO as a positive validation control. The readouts at 72 hours were high content analysis (HCA) for aSMA expression and DAPI staining for nuclear count as measurement of potential cytotoxic effects.

[3] = system: C57BL/6 mice, bleomycin-induced fibrotic lung injury; assay: Example 2: therapeutic treatment in bleomycin-induced idiopathic pulmonary fibrosis mouse model; format: in vivo; conditions: OX1 60 mg/kg, Pirfenidone 100 mg/kg
Excerpt: The purpose of this study is to induce fibrotic lung injury in mice via a single administration of a glycopeptide antibiotic, bleomycin, in order to evaluate the efficacy of dual sEH and COX-2 inhibitor OX-1 in treating and reducing the symptoms associated with idiopathic pulmonary fibrosis. Pirfenidone, standard of care for the treatment of idiopathic pulmonary fibrosis, was used as a reference compound.
Male C57BL/6 mice from Charles River Laboratories aging of 7-8 weeks and weighing around 18-22 g at the time of their enrollment were used in the study.
Doses of OX1 at 60 mg/kg, Pirfenidone at 100 mg/kg, and the disease inducer Bleomycin at 1.5 mg/kg were used. A dosing rate of 10 mL/kg (approximately 0.2 mL/mouse according to their body weight) of OX1 was administered orally once daily to the mice. The mice received OX1 at 60 mg/kg once daily. A dosing rate of 10 mL/kg (approximately 0.2 mL/mouse according to their body weight) of Pirfenidone solution was administered once daily to the mice of the groups receiving Pirfenidone orally at the dose of 100 mg/kg once daily. A single intratracheal instillation of approximately 50 μL (1.5 mg/kg with a dosing rate of 2.5 mL/kg in sterile 0.9% saline) of bleomycin solution was administered to all mice except the sham group on day 0. Animals in the Sham group received one intratracheal instillation of approximately 50 μL of 0.9% saline solution on Day 0 and returned to their respective cages.
Treatment with the vehicle or test articles were initiated and administered starting on day 7 to day 21 as scheduled and described in Table 1 above. All test articles, reference compound and vehicle were administered to animals orally once daily. Food and water were given ad libitum. Daily observations of the behavioral and general health status of the animals were done. Daily body weight was also measured.
Prior to physiological assessment, all mice were introduced to the plethysmograph chamber environment. After the acclimatization period, the functional respiratory parameters were assessed by the whole-body plethysmograph on Day 0 (before bleomycin instillation), 7, 14 and 21 post-bleomycin instillation. Each measurement was performed with a mouse placed alone in an unrestrained whole-body plethysmography chamber (Buxco Electronics Inc.) to measure respiratory functions. The functional respiratory parameters analyzed included; the respiratory rate, the PenH ([…]) and the inspiratory/expiratory time measurements.
On the surgery day (Day 21), the mice were anesthetized, instrumented and arterial blood oxygen saturation (SpO2) was recorded. Blood oxygen saturation was read off of the pulse oximeter (STARR Life Sciences MouseOx Plus system, Oakmont, Pa.) with the probe attached to the right thigh of the animal. The saturation values were measured in percentage (%). At the moment of the sacrifice, the mouse thoracic cavity was open to expose the lungs and all mice were euthanatized by exsanguination. The trachea was then connected to the cannula of a perfusion system. The left lung was clamped while 1.5 mL of cold PBS solution (3×500 μL) was injected by the trachea to perform a bronchoalveolar lavage fluid (BALF) on the right lobe of the lungs and was collected on ice for further analysis. The total cells count with cells differential, the cytokine levels including TNF-α, TGF-β, IL-4, IL-5 and IL-17a, the total protein content as well as the soluble collagen were assessed in the BALF samples. Once collected, 300 μL of the BALF was transferred in an EDTA tube, kept at 2-4° C. and shipped to Biovet Inc. for the total cells count with cells differential analysis. The remaining BALF sample was centrifuged at 1200 rpm for 10 minutes at 4° C. to remove cells. The supernatant was aliquots and frozen at−80° C. until analysis was performed. […]

[4] = lung histopathology day 21, mean
[5] = mean, BLM mice, oral once daily day 7 to 21

COC(=O)c1ccc2c(c1)NC(=O)/C2=C(\Nc1ccc(N(C)C(=O)CN2CCN(C)CC2)cc1)c1ccccc1 [Nintedanib]
body weight course over 21 days [1]: sustained weight loss
neutrophil migration into BALF [1]: effective
number of lymphocytes in BALF [1]: trend increasingly lower
total cell (leukocyte) count in BALF [1]: largest reduction
increased collagen (fibrosis) score, trichrome [1]: the highest
mean Ashcroft score (lung histology) [1]: the highest
mean score for mixed peribronchiolar/perivascular inflammation [1]: similar
Loss of Nuclei ([2]; DAPI staining, nuclear count as measure of potential cytotoxic effects, 72 hours): Yes
IC50 ([2]; donor IPF06, readout at 72 hours, read-out: αSMA inhibition IC50 (μM), Patient Identifier IPF06): 0.6 µM
IC50 ([2]; donor IPF07, readout at 72 hours, read-out: αSMA inhibition IC50 (μM), Patient Identifier IPF07): 0.6 µM
IC50 ([2]; donor IPF08, readout at 72 hours, read-out: αSMA inhibition IC50 (μM), Patient Identifier IPF08): 0.4 µM
IC50 ([2]; mean of three IPF donors, 72 hours, read-out: αSMA inhibition IC50 (μM), Mean): 0.5 µM

Cc1ccc(=O)n(-c2ccccc2)c1 [Pirfenidone]
body weight course over 21 days [1]: sustained weight loss
neutrophil migration into BALF [1]: did not exhibit any effects
number of lymphocytes in BALF [1]: trend increasingly lower
total cell (leukocyte) count in BALF [1]: did not demonstrate the same level of reduction
increased collagen (fibrosis) score, trichrome [1]: slightly lower
mean Ashcroft score (lung histology) [1]: slightly lower
mean score for mixed peribronchiolar/perivascular inflammation [1]: similar
Eosinophils (cells) ([3]; BALF day 21, mean): 874 cells
Lymphocytes (cells) ([3]; BALF day 21, mean): 174517 cells
Macrophages (cells) ([3]; BALF day 21, mean): 204110 cells
Neutrophils (cells) ([3]; BALF day 21, mean): 6999 cells
Soluble collagen ([3]; BALF day 21, mean): 197.82 µg
Total BALF cytokines (pg) IL-4 ([3]; BALF day 21, mean): 0.00 pg
Total BALF cytokines (pg) IL-5 ([3]; BALF day 21, mean): 2.17 pg
Total BALF cytokines (pg) IL-6 ([3]; BALF day 21, mean): 11.98 pg
Total BALF cytokines (pg) IL-17 ([3]; BALF day 21, mean): 0.00 pg
Total BALF cytokines (pg) IP-10 ([3]; BALF day 21, mean): 15.24 pg
Total BALF cytokines (pg) LIF ([3]; BALF day 21, mean): 24.67 pg
Total BALF cytokines (pg) MIG ([3]; BALF day 21, mean): 8.58 pg
Total BALF cytokines (pg) TNFa ([3]; BALF day 21, mean): 0.00 pg
Total TGFβ ([3]; BALF day 21, mean): 472.64 pg
Total cell counts (cells) ([3]; BALF day 21, mean): 386500 cells
Percent Survival (%) ([3]; BLM mice, oral once daily day 7 to 21): 91.70%
Ashcroft score [3, 4]: 3.5 ††
Collagen content (%) [3, 4]: 5.91%
Pulmonary foci (%) [3, 4]: 7.46%
Body weight changes from day 0 (%) [3, 5]: 2.47%
Body weight changes from day 7 (%) [3, 5]: 6.49%
